The subject of series [1] is Murine L1210 leukemia cells. The series can be described thus: L1210 leukemia cell growth inhibition. The format is cell-based. To be noted: for anti-leukemic activity (in words): L1210; for IC50: L1210, 48 hr, read-out: Antileukemic Activity (IC50, 48 hr); for % Control, L1210 growth: Compound II 10 μM.
For series [2], the system named is vesicular stomatitis virus. The series can be described thus: microbe, parasite or virus in culture. The class given is cell-based.
Series [3] in a line: Iron formation (binding) constant. The class given is physicochemical. To be noted: estimated iron binding constant. From the text:
When the compounds were ranked according to their estimated iron binding constants (Table I), the order generally paralleled both the anti-leukemicand anti-herpetic activities of the compounds. […] Furthermore, the effects of the ligands could be prevented by addition of ferric chloride, supporting the idea that iron chelation is the source of activity.

In series [4] the test system is herpes simplex I, KOS strain. The series is described as follows: Inhibition of herpes simplex virus replication in CV-1 cells (plaque assay). The format is cell-based. To be noted: for anti-herpetic activity (in words): herpes simplex I; for % Control, Herpes replication: Compound II 100 μM.
For another series, the system named is Plasmodium falciparum. The series is described as follows: In vitro growth of Plasmodium falciparum (candle jar technique). The format is cell-based. The method, then:
The anti-malarial activity of the compounds listed in Table IV were determined using the method of Scheibel et al, Mol. Pharmacol., 20, pp. 218-223 (1981).
In this study, Plasmodium falciparum were grown in petri dishes using the conventional candle jar technique (Jensen, J. B., and W. Trager. Plasmodium falciparum in culture; use of outdated erythrocytes and description of the candle jar method. J. Parasitol. Vol. 63, pp. 883-886 (1977)). Parasites were grown for 24 hours in 1.5 ml petri dishes in a candle jar before exposure to the chelators of interest. The Plasmodium falciparum were next exposed to various concentrations of the ligands, and ED50 values determined after two and three days of exposure.

The conditions of series [5]: prior art statement; cited from earlier work.
Series [6] is described as follows: Partition between n-octanol and phosphate buffered saline. The format is physicochemical. To be noted: PBS pH 7.40 / n-octanol; for logD at 12 h: pH 7.4, 27° C., read-out: Conc. n-Octanol / Conc. PBS (partition coefficient) (converted). Here is the method: The partition equilibrium values for octanol and phosphate buffered saline were determined for certain of the test compounds. The compounds were added in nitrogen saturated methanol at the same concentration to three acid washed test tubes and the alcohol evaporated leaving a thin film of compounds coating the interior of the tube. Next, 5 ml each of degassed phosphate buffered saline (pH 7.4) and n-octanol were added. The tubes were sealed with Teflon caps under argon and rotated at 6 rpm at 27° C. for 12 hours. […] Absorbance values were compared to Beer's Lambert's plots generated for each compound.

The next series relates to L1210 cells. To be noted: Porter et al, read-out: 50% growth-inhibitory dose; cited from earlier work.
The next series has as its system CV-1 monkey kidney cells. The series is described as follows: Toxicity to resting monkey kidney cell monolayers. To be noted: 100 μM, 24 hours. The format is cell-based.
In series [7] the test system is herpes virus (same herpes strain). To be noted: vero monkey kidney cell line, DeClercq, read-out: IC50 anti-herpetic; cited from earlier work.
Setting [8] is: Vesicular stomatitis virus, CV-1, read-out: Antiviral Activity Vesicular stomatitis (IC50).
Where [9] appears, read: CV-1, read-out: Antiviral Activity Herpes simplex I (IC50).
The mark [10] stands for this setting: 48 h, exposure for 2 days, read-out: Concentration required to reduce in vitro growth of P. falciparum 50% (ED50), Day 2.
Setting [11] is: 72 h, exposure for 3 days, read-out: Concentration required to reduce in vitro growth of P. falciparum 50% (ED50), Day 3.
Setting [12] is: CV-1 cells, read-out: Antiviral Activity Herpes simplex I (IC50).

The values below come from patent US5496841A, “Anti-neoplastic, anti-viral and ribonucleotide reductase activity affecting pharmaceutical compositions and method of treatment” (University of Florida Research Foundation, Inc., priority 1995, dated 1996).

Read-outs that look alike come from different tables or passages of the source.

For the compound `NCCCCN(CCCN)Cc1ccccc1`, the “anti-leukemic activity (in words)” value in series [1] was “virtually inactive”. The IC50 came to 4000 µM in series [1] (Mus musculus), 1000 µM in [2] (setting [8]) and 1000 µM in series [4] (setting [9]). Moreover, the “Formation Constant” value in series [3] is reported as 0 moles/1. The “anti-herpetic activity (in words)” value in series [4] is “virtually inactive”.
For the compound `C[C@H]1OC(c2ccccc2O)=N[C@@H]1C(=O)N(CCCCNC(=O)c1cccc(O)c1O)CCCNC(=O)c1cccc(O)c1O` (relative stereo) [Parabactin, N-[3-(2,3-dihydroxybenzamido)propyl]-N-[4-(2,3-dihydroxybenzamino)-butyryl]-2-(2-hydroxyphenyl)trans-5-methyl-oxazoline-4-carboxamide], the IC50 is 2.6 µM in the series with Plasmodium falciparum (setting [10]), 2.3 µM in the series with Plasmodium falciparum (setting [11]), 2 µM in series [1] (Mus musculus) and 0.4 µM in [4] (setting [12]). In addition, the “times more active as an antineoplastic than DHBA” value in series [1] (ratio vs DHBA) is listed as 10^3. Besides, the “iron formation constant of 1:1 metal complex” value in series [5] is listed as ~10^48 moles/l. The “Gt ° (G° transfer)” value in series [6] is reported as -2.06 K cal M-I. In addition, the logD at 12 h in [6] is 1.51.
For `C[C@H]1OC(c2cccc(O)c2O)=N[C@@H]1C(=O)NCCCN(CCCNC(=O)c1cccc(O)c1O)C(=O)[C@H]1N=C(c2cccc(O)c2O)O[C@@H]1C` (relative stereo) [Vibrobactin, N-[3-(2,3-(dihydrozybenzamido)propyl]-1,3-bis(2,3-dihydroxyphenyl)-trans-5-methyl-2-oxazoline-4-carbonamido]propane], the figures for the IC50 (in the series with Plasmodium falciparum (setting [10]); in the series with Plasmodium falciparum (setting [11]); in [1] (Mus musculus)) were 4.5 µM, 1.8 µM and 2 µM, respectively.
Turning to `O=C(NCCCCNCCCNC(=O)c1cccc(O)c1O)c1cccc(O)c1O` [Compound II, N^1,N^8-bis(2,3-dihydroxybenzoyl)-spermidine], the IC50 with Plasmodium falciparum (setting [10]) was 4.5 µM; in the series on Plasmodium falciparum (setting [11]), 3.7 µM; in the series on L1210 cells, 10 µM; in series [1] (Mus musculus), 7 µM; in [2] (setting [8]), 1000 µM; in series [4] (setting [12]), 32 µM. Moreover, the “% Control, L1210 growth” value in series [1] (FeCl3 0 μM) was 23 % Control; in series [1] (FeCl3 4 μM), 64 % Control; in [1] (FeCl3 8 μM) it was 96 % Control; in series [1] (FeCl3 12 μM), 104 % Control. Also, the “anti-leukemic activity on inclusion of exogenous iron in the incubation media” value in series [1] (ferric chloride added) is “fully attenuated”. Further, the “% Control, Herpes replication” value in [4] (FeCl3 0 μM) is reported as 0 % Control; in [4] (FeCl3 9 μM), 20 % Control; in series [4] (FeCl3 19 μM), 53 % Control; in series [4] (FeCl3 38 μM) it was 138 % Control. Also, in series [4] (ferric chloride added, herpes replication assay), the “anti-herpetic activity on inclusion of exogenous iron in the incubation media” value was “fully attenuated”. In addition, the “growth of resting cell monolayers after treatment and replacement in drug-free media” value in the series with CV-1 monkey kidney cells is listed as “identical to that of untreated cells”. In [6], the “Gt ° (G° transfer)” value is recorded as -0.04 K cal M-I. In addition, the logD at 12 h in series [6] was -0.0132.
Regarding `O=C(O)c1cccc(O)c1O` [DHBA, 2,3-dihydroxybenzoic acid], in series [1], the “anti-leukemic activity (in words)” value is “minimal activity”. The IC50 in series [1] (Mus musculus) is 2800 µM; in [2] (setting [8]), 1000 µM; in series [4] (setting [9]), 1000 µM. Moreover, in series [4], the “anti-herpetic activity (in words)” value is recorded as “minimal activity”. Moreover, the “Gt ° (G° transfer)” value in [6] was “+1.57 K cal M-I”. Moreover, the logD at 12 h in [6] was -1.15.
Regarding `Nc1nc(=O)n([C@@H]2O[C@H](CO)[C@@H](O)[C@@H]2F)cc1I` [FIAC, 2-fluoro-5-iodo-I-B-D-arabinofuranosylcytosine], the IC50 in series [7] is 0.6 µM.
For the compound `O=C(NCCCCN(CCCNC(=O)c1cccc(O)c1O)C(=O)CCCNC(=O)c1cccc(O)c1O)c1cccc(O)c1O` [GABA, N^1,N^8-bis(2,3-dihydroxybenzoyl)-N^4-(4-[2,3-dihydrozybenzamido]-butyryl) spermidine], the IC50 stood at 5.1 µM in the series on Plasmodium falciparum (setting [10]); 4.3 µM in the series with Plasmodium falciparum (setting [11]); 2 µM in series [1] (Mus musculus); 1000 µM in [2] (setting [8]); 18 µM in series [4] (setting [12]).
As for `C[C@@H](O)[C@H](N)C(=O)N(CCCCNC(=O)c1cccc(O)c1O)CCCNC(=O)c1cccc(O)c1O` [N^1,N^8-bis(2,3-dihydroxybenzoyl)-N^4-threonyl-spermidine], the IC50 is 14 µM in series [1]; 1000 µM in series [2] (estimated by methyl cellulose disk overlay assay, read-out: Antiviral Activity Vesicular stomatitis (IC50)); 55 µM in [4] (setting [12]).
With `Nc1nc2c(ncn2COCCO)c(=O)[nH]1` [acyclovir], the IC50 in [7] is 40 µM.
